From the supplement of paper PMC4932681

What was measured:
[1] = test system: BT-474; assay: relative IC50 (midpoint of fitted logistic curve, plateau may be below 50% inhibition; CellTiter-Glo viability); higher = less potent; details: 72 h
Summary of the method: (§1)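 After seeding into 384-well plates with library drugs at five concentrations spanning a 10 000-fold range, breast cancer cell lines and their resistant derivatives were incubated 72 h at 37 °C. Resistant lines received medium with 1 μM of the selecting drug. CellTiter-Glo signal was read on a PHERAstar and scaled to vehicle-only and positive controls. Drug sensitivity score, relative IC50 (the curve midpoint) and top-dose inhibition came from logistic fits run in the Breeze pipeline.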

[2] = test system: T-47D Tam1; assay: as above; details: 4-OH-tamoxifen in medium 1 µM; 72 h
Summary of the method: as §1

[3] = test system: ZR-75-1; assay: as above; details: 72 h
Summary of the method: as §1

[4] = test system: BT-474 Tam2; assay: as above; details: 4-OH-tamoxifen in medium 1 µM; 72 h
Summary of the method: as §1

[5] = test system: T-47D; assay: as above; details: 72 h
Summary of the method: as §1

[6] = test system: T-47D Tam2; assay: as above; details: 4-OH-tamoxifen in medium 1 µM; 72 h
Summary of the method: as §1

[7] = test system: BT-474 Tam1; assay: as above; details: 4-OH-tamoxifen in medium 1 µM; 72 h
Summary of the method: as §1

[8] = test system: ZR-75-1 Tam2; assay: drug sensitivity score (DSS) (DSS (dimensionless)); higher = more sensitive; extreme values may be limits of the assay; details: 4-OH-tamoxifen in medium 1 µM; 72 h
Experimental: (§2)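 FIMM FO2B library drugs were tested at 5 concentrations (10,000-fold range) for 72 h, with CellTiter-Glo viability normalised to DMSO and benzethonium chloride controls. The Drug Sensitivity Score (DSS) is computed from the fitted logistic dose-response curve (area-based; 0 = inactive). Resistant lines and the 'in 1µM tamoxifen' arms were tested in 1 µM 4-OH-tamoxifen.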

[9] = test system: MCF-7; assay: as above; details: 72 h
Experimental: as §2

[10] = test system: BT-474; assay: as above; details: 72 h
Experimental: as §2

[11] = test system: ZR-75-1 Tam1; assay: as above; details: 4-OH-tamoxifen in medium 1 µM; 72 h
Experimental: as §2

[12] = test system: T-47D Tam1; assay: as above; details: 4-OH-tamoxifen in medium 1 µM; 72 h
Experimental: as §2

[13] = test system: ZR-75-1; assay: as above; details: 72 h
Experimental: as §2

[14] = test system: BT-474 Tam2; assay: as above; details: 4-OH-tamoxifen in medium 1 µM; 72 h
Experimental: as §2

[15] = test system: T-47D; assay: as above; details: 72 h
Experimental: as §2

[16] = test system: T-47D Tam2; assay: as above; details: 4-OH-tamoxifen in medium 1 µM; 72 h
Experimental: as §2

[17] = test system: MCF-7 Tam1; assay: as above; details: 4-OH-tamoxifen in medium 1 µM; 72 h
Experimental: as §2

[18] = test system: BT-474 Tam1; assay: as above; details: 4-OH-tamoxifen in medium 1 µM; 72 h
Experimental: as §2

[19] = test system: ZR-75-1 Tam2; assay: relative IC50 (midpoint of fitted logistic curve, plateau may be below 50% inhibition; CellTiter-Glo viability); higher = less potent; details: 4-OH-tamoxifen in medium 1 µM; 72 h
Summary of the method: as §1

[20] = test system: MCF-7; assay: as above; details: 72 h
Summary of the method: as §1

[21] = test system: ZR-75-1 Tam1; assay: as above; details: 4-OH-tamoxifen in medium 1 µM; 72 h
Summary of the method: as §1

Compound	relative IC50 ([1]; 4-OH-tamoxifen in medium 0 µM) [µM]	relative IC50 ([1]; 4-OH-tamoxifen in medium 1 µM) [µM]	relative IC50 [2] [µM]	relative IC50 [4] [µM]	relative IC50 ([5]; 4-OH-tamoxifen in medium 0 µM) [µM]	relative IC50 ([5]; 4-OH-tamoxifen in medium 1 µM) [µM]	relative IC50 [6] [µM]	relative IC50 [7] [µM]	relative IC50 ([20]; 4-OH-tamoxifen in medium 0 µM) [µM]	relative IC50 ([20]; 4-OH-tamoxifen in medium 1 µM) [µM]	relative IC50 ([3]; 4-OH-tamoxifen in medium 0 µM) [µM]	relative IC50 ([3]; 4-OH-tamoxifen in medium 1 µM) [µM]	drug sensitivity score [8]	drug sensitivity score ([9]; 4-OH-tamoxifen in medium 0 µM)	drug sensitivity score ([9]; 4-OH-tamoxifen in medium 1 µM)	drug sensitivity score ([10]; 4-OH-tamoxifen in medium 0 µM)	drug sensitivity score ([10]; 4-OH-tamoxifen in medium 1 µM)	drug sensitivity score [11]	drug sensitivity score [12]	drug sensitivity score ([13]; 4-OH-tamoxifen in medium 0 µM)	drug sensitivity score ([13]; 4-OH-tamoxifen in medium 1 µM)	drug sensitivity score [14]	drug sensitivity score ([15]; 4-OH-tamoxifen in medium 0 µM)	drug sensitivity score ([15]; 4-OH-tamoxifen in medium 1 µM)	drug sensitivity score [16]	drug sensitivity score [17]	drug sensitivity score [18]	relative IC50 [19] [µM]	relative IC50 [21] [µM]
CN(Cc1cnc2nc(N)nc(N)c2n1)c1ccc(C(=O)N[C@@H](CCC(=O)O)C(=O)O)cc1 [Methotrexate]	> 10	> 10	> 10	> 10	> 10	> 10	> 10	> 10	–	–	0.197	> 10	0.0419	0.338	3.04	0	0	1.07	0	6.76	0	0	0	0	0	0	0	–	–
Nc1ccccc1NC(=O)c1ccc(CNc2nccc(-c3cccnc3)n2)cc1 [Mocetotinostat (MGCD0103)]	2.06	1.38	0.688	1.21	3.29	3.22	1.39	2.15	1.76	2	2.72	–	2.62	6.98	4.99	5.13	9.43	2.33	6.2	1.76	1.86	8.98	4.36	4.03	3.42	0.799	7.26	1.48	–
CC(C)n1cnc2c(NCCc3ccc(O)cc3)nc(-c3csc4ccccc34)nc21 [StemRegenin 1]	–	3.38	3.41	2.83	4.12	3.48	1.57	2.12	4.4	0.335	–	–	1.51	1.85	11.7	1.47	5.07	0.327	1.95	0	0.414	5.49	1.21	2.41	4.97	0.218	7.32	–	–
CCS(=O)(=O)c1cccc(-c2cc(C(=O)NC3CCN(C)CC3)c(C)c3[nH]c4ncc(C)cc4c23)c1 [TAK-901]	> 1	0.0905	0.138	–	0.182	–	0.0933	0.371	–	–	> 1	> 1	0	0.354	2.84	0	3.36	0	6.67	0	0	2.87	3.25	0.53	2.96	0	1.12	> 1	> 1

Continued, in another order:

relative IC50 ([1]; 4-OH-tamoxifen in medium 0 µM) [µM]	relative IC50 ([1]; 4-OH-tamoxifen in medium 1 µM) [µM]	relative IC50 [2] [µM]	relative IC50 [4] [µM]	relative IC50 ([5]; 4-OH-tamoxifen in medium 0 µM) [µM]	relative IC50 ([5]; 4-OH-tamoxifen in medium 1 µM) [µM]	relative IC50 [6] [µM]	relative IC50 [7] [µM]	relative IC50 ([20]; 4-OH-tamoxifen in medium 0 µM) [µM]	relative IC50 ([20]; 4-OH-tamoxifen in medium 1 µM) [µM]	Compound	relative IC50 ([3]; 4-OH-tamoxifen in medium 0 µM) [µM]	relative IC50 ([3]; 4-OH-tamoxifen in medium 1 µM) [µM]	drug sensitivity score [8]	drug sensitivity score ([9]; 4-OH-tamoxifen in medium 0 µM)	drug sensitivity score ([9]; 4-OH-tamoxifen in medium 1 µM)	drug sensitivity score ([10]; 4-OH-tamoxifen in medium 0 µM)	drug sensitivity score ([10]; 4-OH-tamoxifen in medium 1 µM)	drug sensitivity score [11]	drug sensitivity score [12]	drug sensitivity score ([13]; 4-OH-tamoxifen in medium 0 µM)	drug sensitivity score ([13]; 4-OH-tamoxifen in medium 1 µM)	drug sensitivity score [14]	drug sensitivity score ([15]; 4-OH-tamoxifen in medium 0 µM)	drug sensitivity score ([15]; 4-OH-tamoxifen in medium 1 µM)	drug sensitivity score [16]	drug sensitivity score [17]	drug sensitivity score [18]	relative IC50 [19] [µM]	relative IC50 [21] [µM]
–	–	3.07	–	3.04	–	2.66	–	1.75	1.35	Nc1nc2[nH]cnc2c(=S)[nH]1 [Thioguanine]	1.08	2.69	2.86	4.8	4.57	0.0001	1.03	3.48	2.75	4.81	1.76	0.61	1.83	0.681	2.48	1.96	0.758	1.44	1.42
–	3.38	1.84	3.84	3.43	3.71	3.71	–	1.36	1.86	O=C(CCCCCCC(=O)Nc1ccc([C@H]2O[C@@H](CSc3nc(-c4ccccc4)c(-c4ccccc4)o3)C[C@@H](c3ccc(CO)cc3)O2)cc1)NO [Tubacin]	–	–	0.331	5.52	5.63	1.29	4.44	1.41	3.65	0.333	0.912	1.25	2.87	4.31	1.62	0.69	0.976	–	3.35
0.00233	0.0119	0.0385	0.0142	0.00441	0.0881	0.0268	0.0209	0.0249	0.0265	CC[C@]1(O)C[C@H]2CN(CCc3c([nH]c4ccccc34)[C@@](C(=O)OC)(c3cc4c(cc3OC)N(C=O)[C@H]3[C@@](O)(C(=O)OC)[C@H](OC(C)=O)[C@]5(CC)C=CCN6CC[C@]43[C@@H]65)C2)C1 [Vincristine]	0.00369	0.0215	8.05	19.1	16.8	21.4	31.3	7.19	19.3	17.3	10.9	30.8	13.8	6.49	17.3	0.209	30.7	0.116	–
> 10	> 10	> 10	> 10	> 10	> 10	> 10	–	> 10	> 10	CS(=O)(=O)c1ccc(C(=O)Nc2ccc(Cl)c(-c3ccccn3)c2)c(Cl)c1 [Vismodegib]	> 10	> 10	0	0	0	0	0	0	0	0	0	0	0	0	0	0	0.264	–	> 10
